Measured values as given in ChEMBL document CHEMBL1921690, “Synthesis and evaluation of pyridone-phenoxypropyl-R-2-methylpyrrolidine analogues as histamine H3 receptor antagonists” (Bioorg Med Chem Lett, 2011).

Columns and labels:
Histamine H3 receptor [1] = molecular target: T1, Histamine H3 receptor (Homo sapiens, UniProt Q9Y5N1); assay: Displacement of [3H]NAMH from human histamine H3 receptor expressed in CHO cells; type: cell-based
[2] = Oral bioavailability in rat at 5 mg/kg; type: ADME, organism-based; conditions: in vivo
Histamine H3 receptor [3] = molecular target: Histamine H3 receptor (Rattus norvegicus, UniProt Q9QYN8); assay: Displacement of [3H]NAMH from rat histamine H3 receptor expressed in CHO cells; type: cell-based
Sequence of Histamine H3 receptor (Rattus norvegicus, UniProt Q9QYN8) (Q9QYN8 whole entry): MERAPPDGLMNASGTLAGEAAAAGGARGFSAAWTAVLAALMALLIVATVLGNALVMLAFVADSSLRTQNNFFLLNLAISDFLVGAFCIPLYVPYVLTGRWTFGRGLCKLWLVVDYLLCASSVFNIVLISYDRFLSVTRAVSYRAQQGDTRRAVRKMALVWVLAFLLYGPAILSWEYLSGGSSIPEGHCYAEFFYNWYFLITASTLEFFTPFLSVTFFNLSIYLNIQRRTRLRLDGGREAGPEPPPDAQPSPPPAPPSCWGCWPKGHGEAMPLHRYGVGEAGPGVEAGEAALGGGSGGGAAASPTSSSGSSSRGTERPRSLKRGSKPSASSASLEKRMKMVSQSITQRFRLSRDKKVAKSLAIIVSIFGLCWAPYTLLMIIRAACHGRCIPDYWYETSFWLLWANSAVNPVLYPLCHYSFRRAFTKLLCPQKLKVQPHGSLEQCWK

[4] = Clearance in rat at 1 mg/kg, iv; type: ADME, organism-based; parameters: dose 1 mg/kg, route intravenous; conditions: in vivo
Rattus norvegicus [5] = assay: Induction of wake promoting activity in Sprague-Dawley rat EEG/EMG model assessed as time to maximal cumulative wake surplus at 30 mg/kg, ip measured after 6 hrs post dosing; type: functional; conditions: route intraperitoneal
[6] = AUC (0 to t) in rat at 5 mg/kg, po; type: ADME, organism-based; parameters: dose 5 mg/kg, route oral; conditions: plasma
Rattus norvegicus [7] = assay: Induction of wake promoting activity in Sprague-Dawley rat EEG/EMG model assessed as maximum cumulative wake surplus time at 10 mg/kg, ip measured after 3 hrs post dosing; type: functional; conditions: route intraperitoneal
[8] = Ratio of drug level in brain to plasma in rat at 10 mg/kg, ip after 1 hr; type: ADME, organism-based; parameters: dose 10 mg/kg, route intraperitoneal; conditions: read-out: BPR
[9] = Half life in rat at 1 mg/kg, iv; type: ADME, organism-based; parameters: dose 1 mg/kg, route intravenous; conditions: in vivo
[10] = Half life in rat liver microsomes; type: ADME, Microsome
[11] = Half life in human liver microsomes; type: ADME, Microsome
[12] = Ratio of drug level in brain to plasma in rat at 5 mg/kg, po; type: ADME, organism-based; parameters: dose 5 mg/kg, route oral; conditions: read-out: BPR
[13] = Cmax in rat at 5 mg/kg, po; type: ADME, organism-based; parameters: dose 5 mg/kg, route oral; conditions: in vivo
Cytochrome P450 1A2 = molecular target: T2, Cytochrome P450 1A2 (Homo sapiens, UniProt P05177); assay: Inhibition of CYP1A2; type: ADME
T2 sequence (P05177 whole entry): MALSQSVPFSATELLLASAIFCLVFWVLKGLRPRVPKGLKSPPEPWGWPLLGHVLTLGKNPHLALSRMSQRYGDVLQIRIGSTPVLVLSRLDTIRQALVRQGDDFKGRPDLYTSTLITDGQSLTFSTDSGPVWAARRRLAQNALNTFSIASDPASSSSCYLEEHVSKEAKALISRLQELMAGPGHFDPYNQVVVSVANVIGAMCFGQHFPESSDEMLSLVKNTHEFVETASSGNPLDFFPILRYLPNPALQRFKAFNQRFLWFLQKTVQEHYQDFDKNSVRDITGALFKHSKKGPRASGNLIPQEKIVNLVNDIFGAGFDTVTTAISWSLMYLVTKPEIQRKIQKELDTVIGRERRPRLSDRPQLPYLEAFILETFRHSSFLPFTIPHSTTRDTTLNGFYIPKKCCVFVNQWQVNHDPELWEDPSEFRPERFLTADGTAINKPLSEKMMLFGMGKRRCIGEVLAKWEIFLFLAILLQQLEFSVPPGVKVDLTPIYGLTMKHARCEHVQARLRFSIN

Cytochrome P450 3A4 = Cytochrome P450 3A4 (Homo sapiens, UniProt P08684); assay: Inhibition of CYP3A4; type: ADME
Sequence of Cytochrome P450 3A4 (P08684 whole entry): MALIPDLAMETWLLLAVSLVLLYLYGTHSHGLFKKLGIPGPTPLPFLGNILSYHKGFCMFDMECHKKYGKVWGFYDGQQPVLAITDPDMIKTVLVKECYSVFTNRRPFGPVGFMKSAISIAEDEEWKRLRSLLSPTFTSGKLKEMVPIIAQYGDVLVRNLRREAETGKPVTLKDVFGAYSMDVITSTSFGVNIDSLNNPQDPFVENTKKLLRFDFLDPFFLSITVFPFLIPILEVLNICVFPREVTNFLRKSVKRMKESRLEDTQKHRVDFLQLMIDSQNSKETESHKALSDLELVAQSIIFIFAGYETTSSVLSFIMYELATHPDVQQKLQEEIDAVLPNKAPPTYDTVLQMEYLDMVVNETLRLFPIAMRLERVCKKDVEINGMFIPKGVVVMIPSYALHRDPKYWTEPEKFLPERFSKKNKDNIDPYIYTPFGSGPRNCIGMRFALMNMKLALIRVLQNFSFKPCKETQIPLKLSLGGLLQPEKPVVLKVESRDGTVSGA

Histamine H4 receptor = Histamine H4 receptor (Homo sapiens, UniProt Q9H3N8); assay: Binding affinity to human histamine H4 receptor
Sequence of Histamine H4 receptor (Q9H3N8 whole entry): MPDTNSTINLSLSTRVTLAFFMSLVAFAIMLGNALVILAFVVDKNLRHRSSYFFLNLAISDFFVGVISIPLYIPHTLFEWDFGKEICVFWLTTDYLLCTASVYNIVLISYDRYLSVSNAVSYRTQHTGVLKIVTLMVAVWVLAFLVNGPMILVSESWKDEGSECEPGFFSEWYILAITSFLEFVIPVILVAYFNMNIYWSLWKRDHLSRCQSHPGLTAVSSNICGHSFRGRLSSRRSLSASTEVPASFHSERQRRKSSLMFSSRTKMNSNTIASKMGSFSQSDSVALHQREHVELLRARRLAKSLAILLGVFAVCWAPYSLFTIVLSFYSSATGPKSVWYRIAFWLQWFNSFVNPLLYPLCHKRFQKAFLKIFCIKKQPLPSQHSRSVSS

Rattus norvegicus [14] = assay: Induction of wake promoting activity in Sprague-Dawley rat EEG/EMG model assessed as AUC of cumulative wake time at 10 mg/kg, ip measured after 4 hrs post dosing (reference value: 114 +/- 9 mins); type: functional; conditions: route intraperitoneal
[15] = Volume of distribution in rat at 1 mg/kg, iv; type: ADME, organism-based; parameters: dose 1 mg/kg, route intravenous; conditions: in vivo
Histamine H2 receptor = Histamine H2 receptor (Homo sapiens, UniProt P25021); assay: Binding affinity to human histamine H2 receptor
Sequence of Histamine H2 receptor (P25021 whole entry): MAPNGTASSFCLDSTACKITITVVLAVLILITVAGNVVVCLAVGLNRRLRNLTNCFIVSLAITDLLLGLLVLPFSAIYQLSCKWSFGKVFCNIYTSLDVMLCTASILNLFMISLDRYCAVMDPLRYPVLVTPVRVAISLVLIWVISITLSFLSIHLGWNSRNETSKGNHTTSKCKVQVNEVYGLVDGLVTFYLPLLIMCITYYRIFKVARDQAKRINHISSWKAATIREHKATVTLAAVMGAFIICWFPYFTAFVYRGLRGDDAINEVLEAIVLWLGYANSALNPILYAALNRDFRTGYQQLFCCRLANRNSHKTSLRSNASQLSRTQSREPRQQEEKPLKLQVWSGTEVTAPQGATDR

Cytochrome P450 2C9 = Cytochrome P450 2C9 (Homo sapiens, UniProt P11712); assay: Inhibition of CYP2C9; type: ADME
Sequence of Cytochrome P450 2C9 (P11712 whole entry): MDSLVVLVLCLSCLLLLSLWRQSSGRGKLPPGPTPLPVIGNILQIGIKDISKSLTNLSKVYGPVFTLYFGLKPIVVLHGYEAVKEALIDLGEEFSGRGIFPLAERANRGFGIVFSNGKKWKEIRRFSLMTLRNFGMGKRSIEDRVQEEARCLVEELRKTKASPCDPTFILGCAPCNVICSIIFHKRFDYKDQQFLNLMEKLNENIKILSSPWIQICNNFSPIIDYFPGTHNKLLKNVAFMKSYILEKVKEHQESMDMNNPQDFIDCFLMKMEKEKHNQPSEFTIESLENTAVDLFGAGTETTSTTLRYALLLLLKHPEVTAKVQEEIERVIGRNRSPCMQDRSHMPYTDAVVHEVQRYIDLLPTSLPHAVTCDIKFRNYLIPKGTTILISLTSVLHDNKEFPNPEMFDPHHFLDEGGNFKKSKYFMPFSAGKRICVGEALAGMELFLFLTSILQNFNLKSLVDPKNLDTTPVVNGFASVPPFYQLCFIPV

Rattus norvegicus [16] = assay: Induction of wake promoting activity in Sprague-Dawley rat EEG/EMG model assessed as fold increase in wake latency at 30 mg/kg, ip measured after 4 hrs post dosing relative to control; type: functional; conditions: route intraperitoneal
Rattus norvegicus [17] = assay: Induction of wake promoting activity in Sprague-Dawley rat EEG/EMG model assessed as maximum cumulative wake surplus time at 10 mg/kg, ip measured after 22 hrs post dosing; type: functional; conditions: route intraperitoneal
Cytochrome P450 2C19 = Cytochrome P450 2C19 (Homo sapiens, UniProt P33261); assay: Inhibition of CYP2C19; type: ADME
Sequence of Cytochrome P450 2C19 (P33261 whole entry): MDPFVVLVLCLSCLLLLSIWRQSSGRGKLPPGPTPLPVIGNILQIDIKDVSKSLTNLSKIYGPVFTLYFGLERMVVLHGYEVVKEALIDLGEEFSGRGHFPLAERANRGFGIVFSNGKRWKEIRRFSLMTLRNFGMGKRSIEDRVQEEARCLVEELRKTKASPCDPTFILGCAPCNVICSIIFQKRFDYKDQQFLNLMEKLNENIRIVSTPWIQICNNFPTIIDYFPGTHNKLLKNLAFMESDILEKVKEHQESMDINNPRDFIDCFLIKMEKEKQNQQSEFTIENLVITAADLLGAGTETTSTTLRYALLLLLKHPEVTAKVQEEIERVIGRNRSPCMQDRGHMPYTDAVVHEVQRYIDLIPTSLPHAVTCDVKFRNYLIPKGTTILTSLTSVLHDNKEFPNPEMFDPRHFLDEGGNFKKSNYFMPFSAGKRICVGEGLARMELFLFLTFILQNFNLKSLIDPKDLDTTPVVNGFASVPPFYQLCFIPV

[18] = Drug level in rat brain at 10 mg/kg, ip after 1 hr; type: ADME, organism-based; parameters: dose 10 mg/kg, route intraperitoneal; conditions: read-out: Drug uptake
Rattus norvegicus [19] = assay: Induction of wake promoting activity in Sprague-Dawley rat EEG/EMG model assessed as increase of wake latency at 30 mg/kg, ip measured after 4 hrs post dosing; type: functional; conditions: route intraperitoneal
Histamine H3 receptor [20] = molecular target: T1, Histamine H3 receptor; assay: Inhibition of basal activity of human histamine H3 receptor expressed in CHO cells assessed as inhibition of RAHM-induced [35S]GTPgammaS binding after 4 hrs by beta liquid scintillation counting; type: functional, cell-based
[21] = Aqueous solubility of compound at pH 7.4; type: physicochemical
Cytochrome P450 2D6 = Cytochrome P450 2D6 (Homo sapiens, UniProt P10635); assay: Inhibition of CYP2D6; type: ADME
Sequence of Cytochrome P450 2D6 (P10635 whole entry): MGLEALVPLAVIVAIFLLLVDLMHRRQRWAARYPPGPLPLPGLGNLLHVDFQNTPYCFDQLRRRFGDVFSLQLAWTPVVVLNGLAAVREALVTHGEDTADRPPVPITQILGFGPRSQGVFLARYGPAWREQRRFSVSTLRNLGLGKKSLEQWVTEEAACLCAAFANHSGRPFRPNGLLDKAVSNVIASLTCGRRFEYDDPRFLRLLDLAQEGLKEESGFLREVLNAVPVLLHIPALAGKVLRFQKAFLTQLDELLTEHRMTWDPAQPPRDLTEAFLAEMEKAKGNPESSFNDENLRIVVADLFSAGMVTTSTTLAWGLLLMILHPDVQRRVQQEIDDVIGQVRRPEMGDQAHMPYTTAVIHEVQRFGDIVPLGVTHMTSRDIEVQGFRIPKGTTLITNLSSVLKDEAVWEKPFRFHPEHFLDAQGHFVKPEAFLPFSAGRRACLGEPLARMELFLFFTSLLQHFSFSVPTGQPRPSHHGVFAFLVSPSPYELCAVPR

[22] = Half life in monkey liver microsomes; type: ADME, Macaca mulatta, Microsome; conditions: rhesus monkey
Rattus norvegicus [23] = assay: Induction of wake promoting activity in Sprague-Dawley rat EEG/EMG model assessed as surplus wake time at 30 mg/kg, ip measured after 22 hrs post dosing; type: functional; conditions: route intraperitoneal
Rattus norvegicus [24] = assay: Inhibition of RAMH-induced dipsogenia in ip dosed rat dipsogenia model; type: functional
[25] = Half life in mouse liver microsomes; type: ADME, Microsome
Histamine H1 receptor = Histamine H1 receptor (Homo sapiens, UniProt P35367); assay: Binding affinity to human histamine H1 receptor
Sequence of Histamine H1 receptor (P35367 whole entry): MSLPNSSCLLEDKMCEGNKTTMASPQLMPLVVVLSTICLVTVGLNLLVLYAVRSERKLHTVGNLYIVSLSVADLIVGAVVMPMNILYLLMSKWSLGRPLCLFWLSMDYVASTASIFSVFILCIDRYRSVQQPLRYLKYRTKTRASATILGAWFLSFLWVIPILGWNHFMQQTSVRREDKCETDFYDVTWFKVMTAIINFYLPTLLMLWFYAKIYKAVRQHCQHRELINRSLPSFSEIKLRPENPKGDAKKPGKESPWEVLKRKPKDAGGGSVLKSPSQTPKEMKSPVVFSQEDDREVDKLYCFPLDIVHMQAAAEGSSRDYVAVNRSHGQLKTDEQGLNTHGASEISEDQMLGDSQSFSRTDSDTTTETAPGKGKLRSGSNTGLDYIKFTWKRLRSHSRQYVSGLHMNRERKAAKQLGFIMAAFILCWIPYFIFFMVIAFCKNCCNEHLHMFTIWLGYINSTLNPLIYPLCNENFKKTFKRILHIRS

Rattus norvegicus [26] = assay: Induction of wake promoting activity in Sprague-Dawley rat EEG/EMG model assessed as retained wake latency at 30 mg/kg, ip measured after 22 hrs post dosing; type: functional; conditions: route intraperitoneal
Histamine H3 receptor [27] = molecular target: T1, Histamine H3 receptor; assay: Antagonist activity at human histamine H3 receptor expressed in CHO cells assessed as inhibition of RAHM-induced [35S]GTPgammaS binding after 4 hrs by beta liquid scintillation counting; type: functional, cell-based
Rattus norvegicus [28] = assay: Induction of wake promoting activity in Sprague-Dawley rat EEG/EMG model assessed as AUC of cumulative wake time at 30 mg/kg, ip measured after 4 hrs post dosing (reference value: 114 +/- 9 mins); type: functional; conditions: route intraperitoneal
Rattus norvegicus [29] = assay: Induction of wake promoting activity in Sprague-Dawley rat EEG/EMG model assessed as time for recovered sleep latency per hrat 30 mg/kg, ip measured after 6 to 22 hrs post dosing; type: functional; conditions: route intraperitoneal
Rattus norvegicus [30] = assay: Induction of wake promoting activity in ip dosed Sprague-Dawley rat EEG/EMG model assessed as increase in AUC of wake latency after 4 hrs post dosing; type: functional, organism-based

T1 sequence (Q9Y5N1 whole entry): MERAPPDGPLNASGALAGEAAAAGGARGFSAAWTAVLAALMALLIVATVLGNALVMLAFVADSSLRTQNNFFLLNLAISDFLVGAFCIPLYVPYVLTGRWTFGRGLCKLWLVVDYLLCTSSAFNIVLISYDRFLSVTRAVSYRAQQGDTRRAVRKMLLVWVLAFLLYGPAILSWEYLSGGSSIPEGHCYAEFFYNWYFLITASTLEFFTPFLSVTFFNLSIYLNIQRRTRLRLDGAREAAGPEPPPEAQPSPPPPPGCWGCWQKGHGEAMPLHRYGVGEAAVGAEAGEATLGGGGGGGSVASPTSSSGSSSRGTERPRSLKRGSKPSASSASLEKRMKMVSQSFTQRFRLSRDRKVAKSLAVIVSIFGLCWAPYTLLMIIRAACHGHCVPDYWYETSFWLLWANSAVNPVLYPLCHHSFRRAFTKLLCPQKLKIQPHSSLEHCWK

## C[C@@H]1CCCN1CCCOc1ccc(-c2cn(C)c(=O)c3ccccc23)cc1
Histamine H3 receptor [1]
  Ki: 0.9 nM
[2]
  bioavailability: 8%
Histamine H3 receptor [3]
  Ki: 2.4 nM
[4]
  clearance: 42 mL/min/kg

## C[C@@H]1CCCN1CCCOc1ccc(-c2ccc(=O)n(-c3ccccc3)c2)cc1
Histamine H3 receptor [1]
  Ki: 1.8 nM
[2]
  bioavailability: 17%
Histamine H3 receptor [3]
  Ki: 19 nM
[4]
  clearance: 138 mL/min/kg

## C[C@@H]1CCCN1CCCOc1ccc(-c2ccc(=O)[nH]c2)cc1
Histamine H3 receptor [1]
  Ki: 7.7 nM
[2]
  bioavailability: 0%
Histamine H3 receptor [3]
  Ki: 9 nM
[4]
  clearance: 96 mL/min/kg

## C[C@@H]1CCCN1CCCOc1ccc(-c2cc(-c3ccccc3)c(=O)n(C)c2)cc1
Histamine H3 receptor [1]
  Ki: 3.5 nM
Histamine H3 receptor [3]
  Ki: 7.9 nM

## C[C@@H]1CCCN1CCCOc1ccc(-c2ccc(=O)n(-c3ccc(F)cc3)c2)cc1
Histamine H3 receptor [1]
  Ki: 4.7 nM
Histamine H3 receptor [3]
  Ki: 9.6 nM

## C[C@@H]1CCCN1CCCOc1ccc(-c2ccc(=O)n(Cc3ccccc3)c2)cc1
Histamine H3 receptor [1]
  Ki: 2 nM
[2]
  bioavailability: 0%
Histamine H3 receptor [3]
  Ki: 10 nM
[4]
  clearance: 171 mL/min/kg

## C[C@@H]1CCCN1CCCOc1ccc(-c2cc(C#N)c(=O)n(C)c2)cc1
Histamine H3 receptor [1]
  Ki: 3.4 nM
Histamine H3 receptor [3]
  Ki: 3 nM

## C[C@@H]1CCCN1CCCOc1ccc(-c2cccn(C)c2=O)cc1
Histamine H3 receptor [1]
  Ki: 18 nM
Histamine H3 receptor [3]
  Ki: 144 nM

## C[C@@H]1CCCN1CCCOc1ccc(-c2ccc(=O)n(C)c2)cc1
Rattus norvegicus [5]
  Time: 146 min
Histamine H3 receptor [1]
  Ki: 0.7 nM
[6]
  AUC(0-t): 867 ng·h/mL
Rattus norvegicus [7]
  Time: 53 min
[8]
  Kp at 1 h: 1.9
[9]
  half-life: 84 min
[10]
  half-life: > 40 min
[2]
  bioavailability: 11%
[11]
  half-life: > 40 min
[12]
  Kp: 1.7
[13]
  Cmax: 190 ng/mL
Cytochrome P450 1A2
  IC50: > 30000 nM
Cytochrome P450 3A4
  IC50: > 30000 nM
Histamine H4 receptor
  Ki: > 10000 nM
Rattus norvegicus [14]
  Time: 160 min
[15]
  Vd: 1.4 L/kg
Histamine H2 receptor
  Ki: > 10000 nM
Cytochrome P450 2C9
  IC50: > 30000 nM
Histamine H3 receptor [3]
  Ki: 8.5 nM
Rattus norvegicus [16]
  fold change (FC): 2
Rattus norvegicus [17]
  Time: 33 min
Cytochrome P450 2C19
  IC50: > 30000 nM
[18]
  concentration at 1 h: 2900 nM
Rattus norvegicus [19]
  Activity: 95%
Histamine H3 receptor [20]
  EC50: 0.7 nM
[4]
  clearance: 11 mL/min/kg
[21]
  solubility: > 300 µg/mL
Cytochrome P450 2D6
  IC50: > 30000 nM
[22]
  half-life: > 40 min
Rattus norvegicus [23]
  Time: 51 min
Rattus norvegicus [24]
  ED50: 0.03 mg/kg
  inhibition: Dose-dependent effect
[25]
  half-life: > 40 min
Histamine H1 receptor
  Ki: > 10000 nM
Rattus norvegicus [26]
  Activity: 35%
Histamine H3 receptor [27]
  Kb: 0.2 nM
Rattus norvegicus [28]
  Time: 227 min
Rattus norvegicus [29]
  Time: 6.3 min
Rattus norvegicus [30]
  Activity: Dose-dependent effect

## C[C@@H]1CCCN1CCCOc1cccc(-c2ccc(=O)n(C)c2)c1
Histamine H3 receptor [1]
  Ki: 112 nM
Histamine H3 receptor [3]
  Ki: > 500 nM

## C[C@@H]1CCCN1CCCOc1ccc(-c2cccc(=O)n2C)cc1
Histamine H3 receptor [1]
  Ki: 4.9 nM
Histamine H3 receptor [3]
  Ki: 21 nM

## C[C@@H]1CCCN1CCCOc1ccc(-c2ccn(C)c(=O)c2)cc1
Histamine H3 receptor [1]
  Ki: 3.2 nM
Histamine H3 receptor [3]
  Ki: 12 nM
